The record followed here is US20230176066A1, “PLASMON-ENHANCED FLUORO-DOT ASSAYS” (Washington University, priority 2021, published 2023).

The subject of data set [1] is JAWS II dendritic cells. In words: Fluoro-dot assay on JAWS II DC: TNFα secretion after LPS stimulation. In kind it is cell-based, Mouse. The following applies: for TNFα secretion: 90 minutes incubation. As to the method:
Mouse TNFα DuoSet ELISA kits (R&D systems, catalog number DY410, lot number P189768) was used to perform the assays. Glass-bottom 96-well black plate (P96-1.5H-N, Cellvis, Mountain View, USA) was first coated with capture antibodies (0.8 μg/ml in PBS), 100 μl/well and incubated overnight at 4° C. The plate was washed three times with 1×PBS and then blocked with 200 μl of reagent diluent (1×PBS in 1% BSA, 0.2 μm filtered). After blocking, the plates were washed three times with PBS. Mouse JAWS II dendritic cells (immature, monocytes ATCC® CRL11904™) were cultured in alpha minimum essential medium with ribonucleosides, deoxyribonucleosides, 4 mM L-glutamine, 1 mM sodium pyruvate and 5 ng/ml murine GM-CSF, 10% heat-inactivated fetal bovine serum, 50 IU/ml of penicillin, 50 μg/ml of streptomycin. JAWS II DCs were seeded on the capture coated plates, at the seeding density of 5,000 cells/well in 100 μl of medium followed by incubation at 37° C. in 5% CO2 for 30 minutes. All the non-adherent cells were removed by taking out the medium and replacing it with 100 μl of fresh medium containing varying amounts of LPS ranging from (0 to 2000 ng/ml). The cells were incubated at 37° C. in 5% CO2 for varying durations from 20 minutes to 90 minutes.
(§1) After completion of the incubation duration, the medium was decanted, and the cells were fixed using 100 μl/well of 4% neutral buffered formalin (NBF) for 20 minutes at room temperature. The plates were then washed three times with PBS and incubated with biotinylated detection antibodies, 75 ng/ml in reagent diluent for 2 hours at room temperature. The plates were washed three times using PBS and then were incubated with 100 μl/well of streptavidin Cy5-plasmonic-fluors (extinction 0.5) for 30 minutes at room temperature in dark. For comparison, 100 μl of 1 μg/ml of streptavidin-Cy5 (Thermo Fisher Scientific, catalog number SA1011) as conventional fluorophore and 1 nM of streptavidin QD655™ (Thermo Fisher Scientific, catalog number Q10123MP) was added to each well for 30 minutes at room temperature in dark. The plates were washed with PBS three times, and the nuclei of the cells were stained with 300 nM DAPI solution (Millipore Sigma, St. Louis, Mo., USA) for 5 minutes at room temperature in dark. Finally, the plates were washed three times in PBS and imaged using Nikon TsR2 epifluorescence microscope. For ELISA, culture supernatants of JAWS II DC after treatment described above were collected and TNFα concentration was measured using mouse TNFα DuoSet ELISA kits (R&D systems, catalog number DY410, lot number P189768) as per manufacturer's instructions.

Data set [2] deals with JAWS II dendritic cells. In words: Multiplexed Fluoro-dot assay: TNFα and IL-6 secretion after LPS stimulation. The conditions noted are these: 200 ng/ml LPS. The format is cell-based, Mouse. As to the method: Mouse TNFα DuoSet ELISA kits (R&D systems, catalog number DY410, lot number P189768) and mouse IL-6 DuoSet ELISA kit (R&D systems, catalog number DY406, lot number P234212) were used to perform the assays. Glass-bottom 96-well black plate (P96-1.5H-N, Cellvis, Mountain View, USA) was first coated with both TNFα capture antibody (0.8 μg/ml in PBS) and IL-6 capture antibody (2 μg/ml in PBS), 100 μ/well, and incubated overnight at 4° C. The plate was washed three times with 1×PBS and then blocked with 200 μl of reagent diluent (1×PBS in 1% BSA, 0.2 μm filtered). After blocking the plates were washed three times with PBS. JAWS II dendritic cells (ATCC® CRL-11904™) were cultured in alpha minimum essential medium with ribonucleosides, deoxyribonucleosides, 4 mM L-glutamine, 1 mM sodium pyruvate and 5 ng/ml murine GM-CSF, 10% heat-inactivated fetal bovine serum, 50 IU/ml of penicillin, 50 μg/ml of streptomycin. JAWS II DCs were seeded on the capture coated plates, at the seeding density of 5,000 cells/well in 100 μl of medium followed by incubation at 37° C. in 5% CO2 for 30 minutes. All the non-adherent cells were removed by taking out the medium and replacing it with 100 μl of fresh medium containing 200 ng/ml of LPS. The cells were incubated at 37° C. in 5% CO2 for 30 minutes, 1 hour, 2 hours, and 3 hours. The wells with medium and without LPS were incubated for 3 hours. […]

Data set [3] concerns JAWS II dendritic cells. In words: ELISA of culture supernatant of JAWS II DC after LPS stimulation. The conditions noted are these: low dose and short duration of stimulation. The format is cell-based, Mouse. On the procedure: as §1
For orientation: In an ELISA, binding on a coated surface is turned into a signal by an enzyme label.

Data set [4] is described as follows: Fluorescence intensity vs. molar concentration of labels. The format is physicochemical. The following applies: linear regression. On the procedure:
Streptavidin-conjugated Cy3-plasmonic-fluor (PF550™ ultrabright fluor) and streptavidin-conjugated Cy5-plasmonic-fluor (PF650™ ultrabright fluor) were purchased from Auragent Biosceince LLC (St. Louis, USA). The extinction was measured using a Shimadzu UV-1800 spectrophotometer. SEM images were obtained using a FEI Nova 2300 field-emission scanning electron microscope at an acceleration voltage of 10 kV. TEM images were obtained using a JEOL JEM-2100F field emission instrument. A drop of aqueous solution was dried on a carbon-coated grid, which had been made hydrophilic by glow discharge. Molar concentrations of plasmonic-fluors was calculated as described previously. Fluorescence intensity was recorded using Azure Biomolecular Imager: Sapphire RGBNIR (Azure Biosystems, Inc. Dublin, USA) and the images were analyzed using Licor Image Studio Lite.
For analyzing the statistical difference between more than two groups, one-way analysis of variance (ANOVA) with a post-hoc Tukey's honest significance test was used. Statistical significance of the data was calculated at 95% (p<0.05) confidence intervals. All values are expressed as mean±standard deviation. GraphPad Prism 6 was used for all statistical analysis. Linear regression was used to calculate the equation and to derive the slope of fluorescence intensity vs. molar concentration graph. […]

For lipopolysaccharide [LPS], the TNFα secretion result in data set [1] (2 ng/ml LPS) is on record as “no significant secretion of TNFα”. The TNFα secretion result in data set [1] (20 ng/ml LPS) was “Substantial secretion”. Further, in data set [1] (200 ng/ml LPS), the “duration of treatment at which difference between treated and untreated cells was statistically significant” value is “more than 40 minutes”; the “incubation time after which TNFα secretion was detectable” value was 40 min. In data set [1] (20, 200, 2000 ng/ml LPS, 90 minutes), the “TNFα secretion with increasing LPS concentration” value is “increase in TNFα secretion”. In data set [1] (90 min incubation, number of clusters and particles/cluster), the “LPS dose at which difference between treated and untreated cells was statistically significant” value was “higher than 20 ng/ml”. In addition, the “secretion of TNFα and IL-6 with increasing duration of LPS incubation” value in data set [2] (30 minutes to 3 hours) is given as “increase in the overall secretion of both cytokines”. Moreover, in data set [2] (2 hours and 3 hours), the “relative secretion of IL-6 and TNFα at longer time durations” value was “more predominant IL-6 secretion as compared to TNFα”. Also, in data set [3], the “amount of TNFα secretion by ELISA” value is reported as “below its detection limit”.
As to “Cy5-plasmonic-fluor: Streptavidin-conjugated Cy5 plasmon-enhanced fluorescent nanolabel purchased from Auragent Bioscience”, in data set [4], the “slope of fluorescence intensity vs. molar concentration, steeper than that of the conventional fluorophore (Cy5 or Cy3)” value is ~16,000 fold.
